Measured values reported in patent US8546428B2 (priority 2006, dated 2013).

Experiments:
[1] = in vivo, po
[2] = hygroscopicity of the salt; assay type: physicochemical

Q: Which “bioavailability, fed subjects compared to fasted subjects” value [1] does the source give for `COc1nc2ccc(Br)cc2cc1[C@@H](c1ccccc1)[C@@](O)(CCN(C)C)c1cccc2ccccc12.O=C(O)/C=C/C(=O)O` [Present fumarate salt, (alpha S, beta R)-6-bromo-alpha-[2-(dimethylamino)ethyl]-2-methoxy-alpha-1-naphthalenyl-beta-phenyl-3-quinolineethanol (2E)-2-butenedioate (1:1)] here?
A: Its value is “higher bioavailability”.

Q: And the hygroscopicity [2]?
A: The hygroscopicity was “non-hygroscopic”.
